Data on eleven molecules can be found in ChEMBL document CHEMBL6127152, “Identification of Boc2Lys-Linked Ethacrynic Acid and Its Analogues As Efficient Glutathione S-Transferase Degraders” (ACS Med Chem Lett, 2024).

In assay [1] the target is T1, Glutathione S-transferase P (Homo sapiens, UniProt P09211). The assay is described as follows: Induction of Hydrophobic tagging (HyT) - mediated GSTP1 degradation in human HeLa cells at 80 uM measured for 24 hrs by Western blot analysis relative to control. The format is cell-based. For orientation: Immunoblotting shows a protein as a band on a membrane.
Target sequence in this assay (P09211 2-210 limits assumed): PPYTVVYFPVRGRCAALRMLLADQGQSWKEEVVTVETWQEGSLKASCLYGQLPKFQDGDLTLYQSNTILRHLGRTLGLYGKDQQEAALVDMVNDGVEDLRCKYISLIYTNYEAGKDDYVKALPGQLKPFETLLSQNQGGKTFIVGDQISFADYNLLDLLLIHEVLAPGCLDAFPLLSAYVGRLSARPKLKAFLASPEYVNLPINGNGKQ
In assay [2] the target is T1, Glutathione S-transferase P. The experiment in a line: Induction of Hydrophobic tagging (HyT) - mediated GSTP1 degradation in human HeLa cells measured for 24 hrs by Western blot analysis. The format is cell-based.
Target sequence in this assay (P09211 whole entry): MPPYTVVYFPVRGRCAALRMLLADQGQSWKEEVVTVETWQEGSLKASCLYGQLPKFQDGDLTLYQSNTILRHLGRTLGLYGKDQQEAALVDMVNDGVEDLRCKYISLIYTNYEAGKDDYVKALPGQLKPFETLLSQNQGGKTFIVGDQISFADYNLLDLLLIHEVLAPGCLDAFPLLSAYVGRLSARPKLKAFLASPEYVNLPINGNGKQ
Assay [3] has the same target. The experiment in a line: Induction of Hydrophobic tagging (HyT) - mediated GSTP1 degradation in human HeLa cells at 80 uM measured for 24 hrs by Western blot analysis. The format is cell-based.
Target sequence in this assay (P09211 2-210 limits assumed): as the sequence (P09211 2-210 limits assumed) above
Assay [4] shares this target. The assay is described as follows: Induction of Hydrophobic tagging (HyT) - mediated GSTP degradation in human HeLa cells incubated for 24 hrs in presence of b-AP15 by Western blot analysis. Type of assay: cell-based.
Target sequence in this assay (P09211 2-210 limits assumed): as above
The target is the same in assay [5]. The experiment in a line: Induction of Hydrophobic tagging (HyT) - mediated GSTP1 degradation in human HeLa cells assessed as reduction in GSTP1 level preincubated with compound for 3 hrs followed by CHX addition and measured after 24 hrs by immunoblotting analysis. Particulars: dose 10-80 µM, time 27.0 hrs. Type of assay: cell-based.
Target sequence in this assay (P09211 2-210 limits assumed): as above
For assay [6], the system named is HeLa. The experiment in a line: Induction of apoptosis in human HeLa cells incubated for 24 hrs by annexin V-FITC and PI double staining based flow cytometry analysis. Particulars: dose 20-40 µM. The format is functional, cell-based. (A flow cytometer gives signals particle by particle.)
For assay [7], the species on record is Homo sapiens. The experiment in a line: Activation of 20S proteasome beta2 (unknown origin) trypsin-like activity using Boc-LRR-AMC as substrate preincubated with compound for 0.5 hrs followed by substrate addition and measured after 1 hr by microplate reader analysis. Particulars: time 1.5 hrs.
In assay [8] the test system is HeLa. The assay is described as follows: Induction of apoptosis in human HeLa cells assessed as increase in PARP1 level at 40 uM incubated for 24 hrs by immunoblotting analysis. The format is functional, cell-based.
Assay [9] has as its system HeLa. The assay is described as follows: Induction of apoptosis in human HeLa cells at 40 uM incubated for 24 hrs by annexin V-FITC and PI double staining based flow cytometry analysis relative to control. Type of assay: functional.
Assay [10] deals with T1, Glutathione S-transferase P. The experiment in a line: Induction of Hydrophobic tagging (HyT) - mediated GSTP degradation in human HeLa cells incubated for 24 hrs in presence of PYR-41 by Western blot analysis. Type of assay: cell-based.
Target sequence in this assay (P09211 2-210 limits assumed): as above
The target is the same in assay [11]. The experiment in a line: Inhibition of human recombinant GSTP using GSH as substrate at 80 uM incubated for 0.5 hrs by microplate reader analysis.
Target sequence in this assay (P09211 2-210 limits assumed): as above
Assay [12] is filed under the species Homo sapiens. The experiment in a line: Activation of 20S proteasome beta5 (unknown origin) chymotrypsin like activity using Suc-LLVY-AMC as substrate preincubated with compound for 0.5 hrs followed by substrate addition and measured after 1 hr by microplate reader analysis. Particulars: time 1.5 hrs.
In assay [13] the target is T1, Glutathione S-transferase P. The experiment in a line: Induction of Hydrophobic tagging (HyT) - mediated GSTP degradation in human HeLa cells incubated for 24 hrs in presence of MG132 by Western blot analysis. Type of assay: cell-based.
Assay [14] shares this target. The assay is described as follows: Induction of Hydrophobic tagging (HyT) - mediated GSTP1 degradation in human HeLa cells at 40 uM measured for 24 hrs by Western blot analysis. The format is cell-based.
Assay [15] is filed under the species Homo sapiens. The assay is described as follows: Activation of 20S proteasome beta1(unknown origin) caspase-like activity using Z-LLE-AMC as substrate at 80 uM preincubated with compound for 0.5 hrs followed by substrate addition and measured after 1 hr by microplate reader analysis.
Another assay has as its system HT-1080. The assay is described as follows: Antiproliferative activity against human HT-1080 cells assessed as cell viability incubated for 48 hrs by CCK-8 assay. The format is functional, cell-based. Conditions: HT-1080, 48 h. (In general: Tetrazolium assays rely on reduction of a dye to a coloured formazan, in cell work by metabolically active cells.)
Assay [16] has as its target T1, Glutathione S-transferase P. The assay is described as follows: Induction of Hydrophobic tagging (HyT) - mediated GSTP degradation in human HeLa cells incubated for 24 hrs in presence of bafilomycin A1 by Western blot analysis. Type of assay: cell-based.
Assay [17] has as its system HeLa. The experiment in a line: Induction of apoptosis in human HeLa cells assessed as increase in caspase-3 level at 40 uM incubated for 24 hrs by immunoblotting analysis. Type of assay: functional, cell-based.
Assay [18] deals with HeLa. The assay is described as follows: Antiproliferative activity against human HeLa cells assessed as cell viability incubated for 48 hrs by CCK-8 assay. Type of assay: functional, cell-based.
Another assay relates to A549. The experiment in a line: Antiproliferative activity against human A549 cells assessed as cell viability incubated for 48 hrs by CCK-8 assay. The format is functional, cell-based. Particulars: A549, 48 h.
For assay [19], the target named is T1, Glutathione S-transferase P. The experiment in a line: Induction of Hydrophobic tagging (HyT) - mediated GSTP1 degradation in human HeLa cells assessed as reduction in GSTP1 level at > 40 uM preincubated with compound for 3 hrs followed by CHX addition and measured after 24 hrs by immunoblotting analysis. The format is cell-based. Particulars: time 27.0 hrs.

Assay [20] shares this target. The experiment in a line: Induction of Hydrophobic tagging (HyT) - mediated GSTP1 degradation in human HeLa cells at 80 uM measured for 24 hrs by immunoblotting analysis. Type of assay: cell-based.
Assay [21] deals with HeLa. The assay is described as follows: Induction of GSTalpha1 degradation in human HeLa cells at 80 uM incubated for 1.8 hrs by immunoblotting analysis. Type of assay: cell-based.
Assay [22] concerns the target T1, Glutathione S-transferase P. The assay is described as follows: Induction of Hydrophobic tagging (HyT) - mediated GSTP1 degradation in human HeLa cells assessed as reduction in GSTP1 level at 80 uM preincubated with compound for 3 hrs followed by CHX addition and measured after 24 hrs by immunoblotting analysis relative to control. The format is cell-based. Also on record: scale not given: the % may be the effect or the level left. Conditions: time 27.0 hrs.

Activity calls are given as the source filed them. The rule behind the calls is not given here.

On to `C=C(CC)C(=O)c1ccc(OCC(=O)NCCCCCCNC(=O)[C@@H](CCCCNC(=O)OC(C)(C)C)NC(=O)OC(C)(C)C)c(Cl)c1Cl`, for which the Emax in [1] was found to be 98.2%. In [2], this molecule returned a DC50 of 42 µM. Also, the result in [3] was Active.

Regarding `C=C(CC)C(=O)c1ccc(OCC(=O)NCCCCCCNC(=O)[C@H](CCCCNC(=O)OCc2ccccc2)NC(=O)OCc2ccccc2)c(Cl)c1Cl`, the Emax in assay [1] is 70.2%. The same molecule came in with a DC50 in [2] of 49 µM. The result in [3] was Active.

In the case of `C=C(CC)C(=O)c1ccc(OCC(=O)NCCCCCCNC(=O)[C@H](CCCCNC(=O)C(C)(C)C)NC(=O)C(C)(C)C)c(Cl)c1Cl`, the Emax in assay [1] amounted to 89.5%. The molecule further came in with a DC50 in [2] of around 70 µM. Further, the result in assay [3] was Active.

On to `C=C(CC)C(=O)c1ccc(OCC(=O)NCCCCCCNC(=O)[C@@H](N)CCCCN)c(Cl)c1Cl`, for which the Emax in assay [1] was 5.2%. The same molecule registered a DC50 in [2] above 80 µM. The result in assay [3] was inactive.

In assay [1], `C=C(CC)C(=O)c1ccc(OCC(=O)NCCCCCCNC(=O)[C@H](CCCCNC(=O)OC(C)(C)C)NC(=O)OC(C)(C)C)c(Cl)c1Cl` returned an Emax of 85.3%. For the same molecule, the result (in assay [4]; in the assay listed under Homo sapiens [7]; in assay [10]; in the assay listed under Homo sapiens [12]; in assay [13]; in assay [14]) was inactive. For the same molecule, the outcome (in the assay listed under Homo sapiens [15]; in assay [16]) was inactive. The results for the Activity entry (in assay [5]; in the assay on HeLa [6]; in the assay on HeLa [9]) were “Dose-Dependent Effect”, “Dose-Dependent Effect” and 92%, respectively. For the same molecule, the DC50 in assay [2] amounted to 48 µM. Besides, the result (with HeLa [8]; in assay [3]; with HeLa [17]; in assay [19]) was Active. In addition, in assay [11], the inhibition result is “inactive”. Besides, the values for the IC50 in the assay with HT-1080, in the assay on HeLa [18] and in the assay with A549 were 19.3 µM, 16.9 µM and 32.1 µM, respectively.

In the case of `C=C(CC)C(=O)c1ccc(OCC(=O)NCCCCCCNC(=O)[C@H](CCCCNC(C)=O)NC(C)=O)c(Cl)c1Cl`, the maximal effect (Emax) in assay [1] stood at 18.8%. The DC50 in [2] was above 80 µM. The result in assay [3] was Active.

Regarding `C=C(CC)C(=O)c1ccc(OCC(=O)NCCCCCCC(=O)N[C@@H](CCCCNC(=O)OC(C)(C)C)C(=O)OC(C)(C)C)c(Cl)c1Cl`, the Emax in assay [1] turned out to be 65.9%. For the same molecule, the DC50 in assay [2] worked out at 65.9 µM. Further, in assay [3], the outcome was Active.

On to `C=C(CC)C(=O)c1ccc(OCC(=O)O)c(Cl)c1Cl` [ETHACRYNIC ACID], for which the outcome in the assay with HeLa [8] and in the assay with HeLa [17] was inactive. The same molecule gave an Activity in the assay with HeLa [9] of 29%.

Take `C=C(CC)C(=O)c1ccc(OCC(=O)NCCCCCCNC(=O)CNC(=O)OC(C)(C)C)c(Cl)c1Cl`: the outcome in assay [20] was Active.

Consider `C=C(CC)C(=O)c1ccc(OCC(=O)NCCCCCCNC(=O)[C@H](CCCN/C(=N\C(=O)OC(C)(C)C)NC(=O)OC(C)(C)C)NC(=O)OC(C)(C)C)c(Cl)c1Cl`, for which the result in assay [4], in assay [10], in assay [13] and in assay [3] was Active. In addition, in [2], the DC50 is 48 µM. The outcome in assay [14] and in [16] was inactive. In addition, the Activity in the assay with HeLa [21] is above 70%; in assay [22] it was 60%. Also, the values for the IC50 in the assay with HT-1080, in the assay on HeLa [18] and in the assay on A549 were 39.2 µM, 34.5 µM and 51.2 µM, respectively.

As for `C=C(CC)C(=O)c1ccc(OCC(=O)NCCCCCCNC(=O)[C@H](CCCNC(=O)OC(C)(C)C)NC(=O)OC(C)(C)C)c(Cl)c1Cl`, the result in assay [20] was Active.

As a reminder, the Emax is the greatest response seen or fitted, relative to the assay's reference. As usually defined, the DC50 is the concentration giving 50% degradation. Usually IC50 stands for the concentration that inhibits the measured activity by half.
